Usually IC50 stands for the concentration that gives 50% inhibition. The term EC50 denotes the midpoint of the concentration-response curve. The Ki is the equilibrium dissociation constant of an inhibitor or competing ligand from its target. A word on the inhibition: it is the relative decrease from the control value, in per cent.

In brackets after ≈: the same amount, converted by molar mass. Where only a bound is given, the exact number is not on record here.

This is an account of results in ChEMBL document CHEMBL4715856 (Bioorg Med Chem, 2020).

Data set [1] can be described thus: Inhibition of SARS-CoV nucleocapsid protein expressed in Escherichia coli BL21 (DE3) incubated for 1 hr by quantum dots-conjugated oligonucleotide biochip-platform based confocal laser scanning microscopic analysis. Also noted: species or system Severe acute respiratory syndrome-related coronavirus.
Data set [2] in a line: Inhibition of HcoV-EMC 3C-like protease. Also noted: species or system unidentified human coronavirus.
Data set [3] is described as follows: Inhibition of 3C-like protease in SARS-CoV2 infected in African green monkey vero cells assessed as antiviral activity incubated for 1 hr by crystal violet staining based plaque reduction assay. Format: cell-based. The settings on record: Severe acute respiratory syndrome coronavirus 2, Vero.
Data set [4] is described as follows: Inhibition of SARS-CoV wild type 3C-like protease using MCA-AVLQSGFR-Lys(Dnp)-Lys-NH2 s substrate by fluorescence method. Set-up: species or system Severe acute respiratory syndrome-related coronavirus.
Data set [5] in a line: Inhibition of SARS-CoV C-terminal (GPH6 residues)-fused wild type 3C-like protease expressed in Escherichia coli BL21(DE3) cells using MCA-AVLQSGFR-Lys(Dnp)-Lys-NH2 s substrate by fluorescence method. Also noted: species or system Severe acute respiratory syndrome-related coronavirus.
Data set [6] in a line: Inhibition of His-tagged SARS-CoV HKU39849 3C-like protease expressed in Escherichia coli BL21 assessed as reduction in cleavage activity using H2N-TSAVLQSGFRKW-COOH as substrate preincubated for 30 mins followed by substrate addition by HPLC-based assay. Set-up: species or system Severe acute respiratory syndrome-related coronavirus.
A short description of data set [7]: Inhibition of SARS-CoV(BJ-01) 3C-like protease infected in African green monkey Vero cells assessed as reduction in viral titer incubated for 48 hrs by crystal violet staining based plaque reduction assay. The settings on record: Severe acute respiratory syndrome-related coronavirus, BJ-01, Vero. Format: cell-based.
Data set [8] in a line: Inhibition of MERS-CoV NSP13 helicase measured after 5 min by FRET-based assay. Also noted: species or system Middle East respiratory syndrome-related coronavirus.
Data set [9] can be described thus: Inhibition of SARS-CoV NSP13 helicase using fluorescein and black hole quencher labelled dsDNA as substrate measured after 10 min by FRET-based assay. Set-up: species or system Severe acute respiratory syndrome-related coronavirus.
Data set [10] in a line: Inhibition of SARS-CoV wild type NSP13 helicase using Cy3-labeled 31/18-mer as substrate measured after 10 min by FRET-based assay. Set-up: species or system Severe acute respiratory syndrome-related coronavirus.
Data set [11] in a line: Inhibition of SARS-CoV C-terminal 6His-tagged papain-like protease expressed in Escherichia coli BL21(DE3) using ubiquitin-AMC as substrate preincubated for 10 mins followed by substrate addition by luminescence spectrometric method. Set-up: species or system Severe acute respiratory syndrome-related coronavirus.
Data set [12] can be described thus: Inhibition of envelope protein in Murine hepatitis virus A59 infected in mouse L929 cells assessed as reduction in viral replication incubated for 24 hrs by crystal violet staining based plaque reduction assay. Format: cell-based. The settings on record: Murine coronavirus, A59, L929, 24 h. For orientation: In a plaque reduction assay, fewer plaques than in the control indicate reduced infectivity or spread.

Data set [13] can be described thus: Inhibition of envelope protein in HCoV-229E infected in human MRC-5 cells assessed as reduction in viral replication incubated for 6 days by crystal violet staining based plaque reduction assay. Format: cell-based. The settings on record: Human coronavirus 229E, MRC5, 144 h.
A short description of data set [14]: Inhibition of MERS-CoV papain-like protease using Ub-7-amino-4-trifluoro-methylcoumarin as substrate incubated for 3 mins by fluorescence method. Also noted: species or system Middle East respiratory syndrome-related coronavirus.
The nature of data set [15]: Inhibition of SARS-CoV papain-like protease using Ub-7-amino-4-trifluoro-methylcoumarin as substrate incubated for 3 mins by fluorescence method. Set-up: species or system Severe acute respiratory syndrome-related coronavirus.
A short description of data set [16]: Inhibition of SARS-CoV 3C-like protease (9970 to 10887 residues) expressed in Escherichia coli BL21(DE3) CodonPlus-RIL cells using DABCYL-KTSAVLQSGFRKME-EDANS as substrate by FRET assay. Set-up: species or system Severe acute respiratory syndrome-related coronavirus.
Data set [17] in a line: Inhibition of SARS-CoV papain-like protease (723 to 1041 residues) expressed in Escherichia coli BL21(DE3) using Arg-Leu-Arg-Gly-Gly-AMC as substrate by fluorescence method. Set-up: species or system Severe acute respiratory syndrome-related coronavirus.
A short description of data set [18]: Inhibition of MERS-CoV (KOR/KNIH/002_05_2015) 3C-like protease expressed in Escherichia coli BL21(DE3) using Dabcyl-KTSAVLQSGFRKME-Edans as substrate by fluorometric assay. Also noted: species or system Middle East respiratory syndrome-related coronavirus.
The nature of data set [19]: Inhibition of SARS-CoV 3C-like protease expressed in Escherichia coli BL21(DE3) using Dabcyl-KTSAVLQSGFRKME-Edans as substrate by fluorometric assay. Also noted: species or system Severe acute respiratory syndrome-related coronavirus.
The nature of data set [20]: Inhibition of SARS-CoV spike protein expressed in Escherichia coli BL21(DE3)pLysS/human ACE2 using 2,2'-azinobis(3-ethylbenzthiazoline-sulfonic acid) preincubated for 2 hrs with biotinylated S protein followed by incubation with ACE2 for 1 hr and subsequent substrate addition by competitive biotinylated ELISA. For orientation: In an ELISA, binding on a coated surface is turned into a signal by an enzyme label.

A short description of data set [21]: Inhibition of SARS-CoV spike protein expressed in Escherichia coli BL21(DE3)pLysS/human ACE2 using 2,2'-azinobis(3-ethylbenzthiazoline-sulfonic acid) at 10 nmol preincubated for 2 hrs with biotinylated S protein followed by incubation with ACE2 for 1 hr and subsequent substrate addition by competitive biotinylated ELISA relative to control. The settings on record: time 3.0 hrs.

The nature of data set [22]: Inhibition of SARS-CoV 3C-like protease by FRET assay. Also noted: species or system Severe acute respiratory syndrome-related coronavirus.
Data set [23] is described as follows: Inhibition of MERS-CoV 3C-like protease. Set-up: species or system Middle East respiratory syndrome-related coronavirus.
The nature of data set [24]: Inhibition of SARS-CoV2 3C-like protease (3264 to 3569 residues) expressed in Escherichia coli BL21(DE3) BL21-Gold using Dabcyl-KTSAVLQSGFRKM-E(Edans)-NH2 as substrate preincubated for 10 min followed by substrate addition by FRET assay. Set-up: species or system Severe acute respiratory syndrome coronavirus 2.
A short description of data set [25]: Inhibition of SARS-CoV 3C-like protease expressed in Escherichia coli BL21(DE3) using DABCYL-KTSAVLQSGFRKME-EDANS as substrate preincubated for 1 hr followed by substrate addition and measured after 16 hrs by fluorescence method. Set-up: species or system Severe acute respiratory syndrome-related coronavirus.
Data set [26] in a line: Inhibition of SARS-CoV NSP13 helicase in presence of DT20Cy3 and ReleaseBHQ by FRET-based assay. Also noted: species or system Severe acute respiratory syndrome-related coronavirus.
For data set [27], the target named is T1, mRNA cap guanine-N(7) methyltransferase (Homo sapiens, UniProt O43148).
Data set [28] relates to guanine-N7 methyltransferase (human versus SARS-CoV). Briefly: in vitro.
In data set [29] the target is T1, mRNA cap guanine-N(7) methyltransferase. The source holds these as a separate data set.
Data set [30] relates to guanine-N7 methyltransferase (human versus SARS coronavirus WHU). Briefly: in vitro.
Data set [31] is described as follows: Inhibition of SARS-CoV N-terminal His-tagged 3C-like protease expressed in Escherichia coli GJ1158 using 2-aminobenzoyl-SVTLQSG-Tyr(NO2)-R as substrate by quenched-FRET assay. Also noted: species or system Severe acute respiratory syndrome-related coronavirus.
The nature of data set [32]: Inhibition of SARS-CoV 3C-like protease using abz-SVTLQSG-Tyr(NO2)R as substrate by spectrofluorimetric assay. Also noted: species or system Severe acute respiratory syndrome-related coronavirus.

T1 sequence (O43148 whole entry): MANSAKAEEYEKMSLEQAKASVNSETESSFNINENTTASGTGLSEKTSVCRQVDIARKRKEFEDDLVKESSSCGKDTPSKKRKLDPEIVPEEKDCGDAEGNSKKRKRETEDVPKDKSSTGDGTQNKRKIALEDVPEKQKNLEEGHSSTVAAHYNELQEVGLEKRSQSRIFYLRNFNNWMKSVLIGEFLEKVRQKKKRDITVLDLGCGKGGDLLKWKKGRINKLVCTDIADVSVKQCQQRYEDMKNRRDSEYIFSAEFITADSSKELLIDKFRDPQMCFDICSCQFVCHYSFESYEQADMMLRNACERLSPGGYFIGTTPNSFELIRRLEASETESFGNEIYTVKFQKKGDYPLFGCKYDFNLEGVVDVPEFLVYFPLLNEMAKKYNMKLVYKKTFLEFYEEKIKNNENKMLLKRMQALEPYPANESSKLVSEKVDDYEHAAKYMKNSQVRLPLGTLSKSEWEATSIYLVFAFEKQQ

The compound `O=C(O[C@@H]1Cc2c(O)cc(O)cc2O[C@H]1c1cc(O)c(O)c(O)c1)c1cc(O)c(O)c(O)c1` [GALLOCATECHIN GALLATE] displayed an IC50 in data set [1] of 5 ng/mL (≈ 0.0109 µM).
In data set [2], `Cc1cc(C(=O)N[C@@H](C)C(=O)N[C@H](C(=O)N[C@@H](CC(C)C)C(=O)N[C@H](/C=C/C(=O)OCc2ccccc2)C[C@@H]2CCNC2=O)C(C)C)no1` yielded a concentration for half-maximal inhibition (IC50) of 280 nM. Also, the EC50 in [3] came out at 16800 nM. The Ki turned out to be 1900 nM in [4] and 2300 nM in [5].
In the case of `CC1=C(C(=O)OCCc2ccccc2)C(c2ccccc2[N+](=O)[O-])C2=C(CCCC2=O)N1` (stereo not drawn), the values for the IC50 in data set [6] and in data set [7] were 2500 nM and 8900 nM, respectively.
In [8], `Sc1nnc(NNc2ccc(I)cc2)n1NC1C=CCC1` (stereo not drawn) showed an IC50 of 2500 nM.
With `C=CCn1c(S)nnc1CSc1ccccc1[N+](=O)[O-]`, the IC50 is 6000 nM in data set [9] and 5900 nM in data set [10].
Turning to `Nc1nc2[nH]cnc2c(=S)[nH]1` [THIOGUANINE], the IC50 in data set [11] was 5000 nM.
In the case of `N=C(N)NC(=O)c1nc(Cl)c(N2CCCCCC2)nc1N` [N,N-HEXAMETHYLENEAMILORIDE], the figures for the EC50 in [12] and in data set [13] were 3910 nM and 1340 nM, respectively.
In the case of `CCN(CC)C(=S)SSC(=S)N(CC)CC`, the IC50 was found to be 22700 nM in data set [14] and 14200 nM in data set [15].
With `C=C(C)C(Cc1c(OC)ccc(C(=O)/C=C/c2ccc(O)cc2)c1O)C(=O)O` (stereo not drawn), the values for the IC50 in [16] and in data set [17] were 11400 nM and 1200 nM, respectively.
For the compound `O=C[C@H](C[C@@H]1CCNC1=O)NC(=O)[C@H](Cc1ccccc1)NC(=O)/C=C/c1ccc(Cl)cc1F`, the IC50 in [18] is 1700 nM; in [19], 200 nM.
Compound H-SQKSIVAYTM-NH2 gave an IC50 in data set [20] of 1.8 nM. Also, the inhibition in data set [21] turned out to be 90%.
Regarding `CC(C)(C)OC(=O)Nc1cccn([C@@H](CC2CC2)C(=O)N[C@@H](C[C@@H]2CCCC2=O)C(=O)C(=O)NCc2ccccc2)c1=O`, the results for the IC50 in [22], in data set [23] and in data set [24] were 900 nM, 580 nM and 670 nM, respectively.
In [25], `C[C@@H]1O[C@@H](O[C@H]2[C@@H](Oc3cc(O)c4c(=O)cc(-c5ccc(O)cc5)oc4c3)O[C@H](CO)[C@@H](O)[C@@H]2O)[C@H](O)[C@H](O)[C@H]1O` yielded an IC50 of 27500 nM.
As for `Cc1ncc(CO)c(C23OC4(O)CC(O)(CC(O)(C4)O2)O3)c1O`, the concentration for half-maximal inhibition (IC50) in data set [26] was found to be 3000 nM.
Regarding `Nc1ncnc2c1ncn2[C@@H]1O[C@H](C[C@@H](N)CC[C@H](N)C(=O)O)[C@@H](O)[C@H]1O` [SINEFUNGIN], the concentration for half-maximal inhibition (IC50) is less than 50 nM in [27] and 0.55 nM in data set [29]. Further, the selectivity ratio in data set [28] is less than 2.63; in data set [30], 0.32.
`O=C(O[C@@H]1Cc2c(O)cc(O)cc2O[C@H]1c1ccc(O)c(O)c1)c1cc(O)c(O)c(O)c1` [(-)-CATECHINGALLATE]: in data set [1], the IC50 was found to be 5 ng/mL (≈ 0.0113 µM).
In data set [31], `O=C(Oc1cncc(Cl)c1)c1cccs1` showed an IC50 of 500 nM.
Turning to `O=C(Cc1cncc(Br)c1)c1ccc(-c2ccc(Cl)cc2)o1`, in data set [32], the IC50 stood at 13000 nM.
